Values quoted from earlier work as cited in US7655259B2, “Delayed release carnitine” (SIGMA-TAU Industrie Farmaceutiche Riunite S.p.A, priority 1993, dated 2010).

Key:
[1] = given orally, carnitine deficient patients
[2] = in the human

Row | conversion to L-carnitine [1] | SMILES | half-life [2]
1 | readily converted to L-carnitine | C[N+](C)(C)CCCC(=O)[O-] [GBB, Gamma-butyrobetaine] | –
2 | – | C[N+](C)(C)CC(O)CC(=O)[O-] [L-carnitine, 3-hydroxy-4-(trimethylamino-)butyrate] | approximately 30 minutes
